In the supplement of paper PMC4862054:

What was measured:
Experiment in all cases: normalised viability (% of control), CellTiter-Blue; higher = more viable cells (about 100 = DMSO control)
[1] = system: CAL-51; conditions: incubation time: 72 h
Experimental: (§1)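 DSRT, CellTiter-Blue viability, 72 h incubation. Signal is normalised to DMSO and benzethonium chloride controls. Value is the normalised response at dose 9.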

[2] = system: HDQ-P1; conditions: incubation time: 72 h
Experimental: as §1

[3] = system: CAL-148; conditions: incubation time: 72 h
Experimental: as §1

[4] = system: MDA-MB-453; conditions: incubation time: 72 h
Experimental: as §1

[5] = system: CAL-85-1; conditions: incubation time: 72 h
Experimental: as §1

[6] = system: DU-4475; conditions: incubation time: 72 h
Experimental: as §1

[7] = system: CAL-51; conditions: incubation time: 72 h; remark: listed apart in the source
Procedure, shortened: (§2)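 Compound dissolved in 5 µl medium was pre-loaded into 384-well plates, and breast cancer cell lines in 20 µl suspension were seeded on top and incubated 72 h. After adding 2.5 µl CellTiter-Blue reagent for 2 h at 37 °C, fluorescence was read at 560/590 nm. Plates were normalised to vehicle (100) and a positive kill control (0), with Z'-factor quality control. Each value is normalised viability at a single listed concentration from the series.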

[8] = system: HDQ-P1; conditions: incubation time: 72 h; remark: listed apart in the source
Procedure, shortened: as §2

[9] = system: CAL-148; conditions: incubation time: 72 h; remark: listed apart in the source
Procedure, shortened: as §2

[10] = system: MFM-223; conditions: incubation time: 72 h
Procedure, shortened: as §2

[11] = system: MDA-MB-453; conditions: incubation time: 72 h; remark: listed apart in the source
Procedure, shortened: as §2

[12] = system: HCC1599; conditions: incubation time: 72 h
Procedure, shortened: as §2

[13] = system: MDA-MB-468; conditions: incubation time: 72 h
Procedure, shortened: as §2

[14] = system: BT-474; conditions: incubation time: 72 h
Procedure, shortened: as §2

[15] = system: MDA-MB-436; conditions: incubation time: 72 h
Procedure, shortened: as §2

[16] = system: CAL-120; conditions: incubation time: 72 h
Procedure, shortened: as §2

[17] = system: CAL-85-1; conditions: incubation time: 72 h; remark: listed apart in the source
Procedure, shortened: as §2

[18] = system: DU-4475; conditions: incubation time: 72 h; remark: listed apart in the source
Procedure, shortened: as §2

[19] = system: MDA-MB-231; conditions: incubation time: 72 h
Procedure, shortened: as §2

[20] = system: HCC1937; conditions: incubation time: 72 h
Procedure, shortened: as §2

[21] = system: SK-BR-3; conditions: incubation time: 72 h
Procedure, shortened: as §2

[22] = system: BT-549; conditions: incubation time: 72 h
Procedure, shortened: as §2

[23] = system: Hs578T; conditions: incubation time: 72 h
Procedure, shortened: as §2

[24] = system: HCC1143; conditions: incubation time: 72 h
Procedure, shortened: as §2

[25] = system: CAL-51; conditions: 10 nM; incubation time: 72 h
Experimental: (§3)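 DSRT, CellTiter-Blue viability, 72 h incubation. Signal is normalised to DMSO and benzethonium chloride controls. Value is the normalised response at dose 3.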

[26] = system: HDQ-P1; conditions: 10 nM; incubation time: 72 h
Experimental: as §3

[27] = system: CAL-148; conditions: 10 nM; incubation time: 72 h
Experimental: as §3

[28] = system: MFM-223; conditions: 100 nM; incubation time: 72 h
Experimental: as §3

[29] = system: MDA-MB-453; conditions: 10 nM; incubation time: 72 h
Experimental: as §3

[30] = system: HCC1599; conditions: 100 nM; incubation time: 72 h
Experimental: as §3

[31] = system: MDA-MB-468; conditions: 100 nM; incubation time: 72 h
Experimental: as §3

[32] = system: BT-474; conditions: 100 nM; incubation time: 72 h
Experimental: as §3

[33] = system: MDA-MB-436; conditions: 100 nM; incubation time: 72 h
Experimental: as §3

[34] = system: CAL-120; conditions: 100 nM; incubation time: 72 h
Experimental: as §3

[35] = system: CAL-85-1; conditions: 10 nM; incubation time: 72 h
Experimental: as §3

[36] = system: DU-4475; conditions: 10 nM; incubation time: 72 h
Experimental: as §3

[37] = system: MDA-MB-231; conditions: 100 nM; incubation time: 72 h
Experimental: as §3

[38] = system: HCC1937; conditions: 100 nM; incubation time: 72 h
Experimental: as §3

[39] = system: SK-BR-3; conditions: 100 nM; incubation time: 72 h
Experimental: as §3

[40] = system: BT-549; conditions: 100 nM; incubation time: 72 h
Experimental: as §3

[41] = system: Hs578T; conditions: 100 nM; incubation time: 72 h
Experimental: as §3

[42] = system: HCC1143; conditions: 100 nM; incubation time: 72 h
Experimental: as §3

CC(=O)c1c(C)c2cnc(Nc3ccc(N4CCNCC4)cn3)nc2n(C2CCCC2)c1=O (10000 nM)
normalised viability [1]: 50.8%
normalised viability [2]: 93.5%
normalised viability [3]: 87.6%
normalised viability [4]: 61.1%
normalised viability [5]: 78.2%
normalised viability [6]: 85.9%

C[C@]12CC[C@@H]3c4ccc(OC(=O)N(CCCl)CCCl)cc4CC[C@H]3[C@@H]1CC[C@@H]2O [Estramustine] (990 nM)
normalised viability [1]: 84%
normalised viability [2]: 99.5%
normalised viability [3]: 111%
normalised viability [4]: 101%
normalised viability [5]: 110%
normalised viability [6]: 89.9%

C[C@]1(O)C[C@@H](c2nc(-c3ccc4ccc(-c5ccccc5)nc4c3)c3c(N)nccn32)C1 [OSI-906] (10000 nM)
normalised viability [1]: 81%
normalised viability [2]: 32.4%
normalised viability [3]: 118%
normalised viability [4]: 65.9%
normalised viability [5]: 67.4%
normalised viability [6]: 92.6%

COc1cc(F)c(F)c(Nc2ccc(I)cc2F)c1NS(=O)(=O)C1(C[C@H](O)CO)CC1 [RDEA119] (10000 nM)
normalised viability [1]: 60.4%
normalised viability [2]: 51.1%
normalised viability [3]: 71.5%
normalised viability [4]: 36.1%
normalised viability [5]: 29.9%
normalised viability [6]: 0.93%

O=P(O)(O)C(O)(Cn1ccnc1)P(=O)(O)O [Zoledronic acid]
normalised viability ([7]; 3 nM): 108%
normalised viability ([7]; 30 nM): 116%
normalised viability ([7]; 100 nM): 102%
normalised viability ([8]; 3 nM): 94.6%
normalised viability ([8]; 30 nM): 91.9%
normalised viability ([8]; 100 nM): 84.1%
normalised viability ([9]; 3 nM): 92.2%
normalised viability ([9]; 30 nM): 84.4%
normalised viability ([9]; 100 nM): 92.6%
normalised viability ([10]; 10 nM): 99.3%
normalised viability ([10]; 1000 nM): 86.5%
normalised viability ([10]; 10000 nM): 97.2%
normalised viability ([11]; 3 nM): 101%
normalised viability ([11]; 30 nM): 96%
normalised viability ([11]; 100 nM): 101%
normalised viability ([12]; 10 nM): 94.1%
normalised viability ([12]; 1000 nM): 75.3%
normalised viability ([12]; 10000 nM): 95.4%
normalised viability ([13]; 10 nM): 107%
normalised viability ([13]; 1000 nM): 102%
normalised viability ([13]; 10000 nM): 111%
normalised viability ([14]; 10 nM): 103%
normalised viability ([14]; 1000 nM): 103%
normalised viability ([14]; 10000 nM): 117%
normalised viability ([15]; 10 nM): 95%
normalised viability ([15]; 1000 nM): 89.2%
normalised viability ([15]; 10000 nM): 94.3%
normalised viability ([16]; 10 nM): 81.2%
normalised viability ([16]; 1000 nM): 98%
normalised viability ([16]; 10000 nM): 91.8%
normalised viability ([17]; 3 nM): 91.6%
normalised viability ([17]; 30 nM): 83.2%
normalised viability ([17]; 100 nM): 96.5%
normalised viability ([18]; 3 nM): 107%
normalised viability ([18]; 30 nM): 95.8%
normalised viability ([18]; 100 nM): 99.8%
normalised viability ([19]; 10 nM): 92.2%
normalised viability ([19]; 1000 nM): 89.3%
normalised viability ([19]; 10000 nM): 95.9%
normalised viability ([20]; 10 nM): 96.4%
normalised viability ([20]; 1000 nM): 95.5%
normalised viability ([20]; 10000 nM): 99.7%
normalised viability ([21]; 10 nM): 106%
normalised viability ([21]; 1000 nM): 93.9%
normalised viability ([21]; 10000 nM): 96.5%
normalised viability ([22]; 10 nM): 92.5%
normalised viability ([22]; 1000 nM): 108%
normalised viability ([22]; 10000 nM): 91.3%
normalised viability ([23]; 10 nM): 95.1%
normalised viability ([23]; 1000 nM): 113%
normalised viability ([23]; 10000 nM): 98.2%
normalised viability ([24]; 10 nM): 82%
normalised viability ([24]; 1000 nM): 85.2%
normalised viability ([24]; 10000 nM): 85.2%
normalised viability [25]: 116%
normalised viability [26]: 91.5%
normalised viability [27]: 86.5%
normalised viability [28]: 91.7%
normalised viability [29]: 96.2%
normalised viability [30]: 109%
normalised viability [31]: 117%
normalised viability [32]: 102%
normalised viability [33]: 113%
normalised viability [34]: 94.2%
normalised viability [35]: 90.2%
normalised viability [36]: 97.7%
normalised viability [37]: 93.9%
normalised viability [38]: 102%
normalised viability [39]: 91%
normalised viability [40]: 101%
normalised viability [41]: 85.3%
normalised viability [42]: 89.1%

O=P(O)(O)C(O)(Cn1ccnc1)P(=O)(O)O [Zoledronic acid] (10000 nM)
normalised viability [1]: 103%
normalised viability [2]: 106%
normalised viability [3]: 96.1%
normalised viability [4]: 82.3%
normalised viability [5]: 90.4%
normalised viability [6]: 98%
